Assay results from US9862674B2, “Therapeutic compounds and methods of use” (University of Florida Research Foundation, Inc., priority 2007, dated 2018).

Columns and labels:
5HT2C receptors [1] = biological target: T1, 5HT2C receptors (Homo sapiens, UniProt P28335); experiment: Radioreceptor saturation and competition binding, [3H]-mesulergine labeled 5-HT2C receptor membranes from transfected CHO-K1 cells
T1 sequence (P28335 33-458): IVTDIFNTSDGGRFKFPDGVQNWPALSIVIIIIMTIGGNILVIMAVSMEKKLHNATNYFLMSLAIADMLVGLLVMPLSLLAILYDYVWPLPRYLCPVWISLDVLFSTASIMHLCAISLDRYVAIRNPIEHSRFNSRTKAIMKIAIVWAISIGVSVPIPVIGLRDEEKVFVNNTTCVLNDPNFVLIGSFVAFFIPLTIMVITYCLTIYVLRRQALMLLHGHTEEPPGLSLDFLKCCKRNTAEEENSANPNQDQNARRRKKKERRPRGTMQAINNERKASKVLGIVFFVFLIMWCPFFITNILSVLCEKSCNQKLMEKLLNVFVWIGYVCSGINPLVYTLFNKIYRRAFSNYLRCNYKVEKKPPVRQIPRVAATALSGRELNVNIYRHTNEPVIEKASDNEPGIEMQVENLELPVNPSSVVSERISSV

5HT2A receptor [2] = biological target: T2, 5HT2A receptor (Homo sapiens, UniProt P28223); experiment: PLC/[3H]-IP formation in CHO cells transiently transfected with human 5HT2A cDNA (agonist and antagonist mode); assay type: cell-based; parameters: host or cells: CHO-K1 (ATCC CCL-61), transient transfection
T2 sequence (P28223 whole entry): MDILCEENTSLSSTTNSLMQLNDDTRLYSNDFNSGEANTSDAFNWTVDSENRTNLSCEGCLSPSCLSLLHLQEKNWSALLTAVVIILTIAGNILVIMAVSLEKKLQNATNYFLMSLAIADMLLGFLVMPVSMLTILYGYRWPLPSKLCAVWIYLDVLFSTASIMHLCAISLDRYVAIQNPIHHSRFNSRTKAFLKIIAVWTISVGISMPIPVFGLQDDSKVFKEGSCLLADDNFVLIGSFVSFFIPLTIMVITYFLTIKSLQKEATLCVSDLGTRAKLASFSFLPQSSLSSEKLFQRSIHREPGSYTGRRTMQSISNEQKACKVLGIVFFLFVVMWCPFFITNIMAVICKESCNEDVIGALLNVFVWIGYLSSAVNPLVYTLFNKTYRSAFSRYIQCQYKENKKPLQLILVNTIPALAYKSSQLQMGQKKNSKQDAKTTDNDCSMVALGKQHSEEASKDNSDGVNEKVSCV

[3] = test system: 5HT2C receptors over 5HT2A receptors; details: in vitro; cited from earlier work
5HT2A receptor [4] = biological target: T2, 5HT2A receptor; experiment: PDSP (2005) 5HT2A receptor-mediated PLC/[3H]-IP formation; assay type: cell-based; details: concentrations to 10 μM; not shown
5HT2C receptors [5] = biological target: T1, 5HT2C receptors; experiment: PDSP (2005) functional activity of APTs at 5HT2C receptors; assay type: cell-based; details: preliminary data
5HT2A receptor [6] = biological target: T2, 5HT2A receptor; experiment: Radioreceptor saturation and competition binding, [3H]-ketanserin labeled 5-HT2A receptor membranes from transfected CHO-K1 cells; parameters: host or cells: CHO-K1 (ATCC CCL-61), transient transfection; details: saturation binding
[7] = test system: cocaine self-administration; details: rat; cited from earlier work

## CN(C)C1CCc2c(cccc2-c2cccc(Cl)c2)C1 (stereo not shown) [35 (Cl-5APT)]
5HT2C receptors [1]
  Ki: ~0.22 µM

## CN(C)C1CCc2cc(-c3cccc(C(F)(F)F)c3)ccc2C1 (stereo not shown) [37 (CF3^−6APT)]
5HT2C receptors [1]
  Ki: ~1.5 µM

## NCCc1c[nH]c2ccc(O)cc12 [5-HT, 5-hydroxytryptamine]
5HT2A receptor [2]; 5-HT 1.0 μM
  5HT2A PLC/[3H]-IP formation stimulated by agonist: ~250 % basal control
5HT2A receptor [2]; at Emax concentration
  maximal PLC/[3H]-IP formation, 5HT2A: ~300 % basal control activity

## CN(C)C1CCc2c(cccc2-c2cccc(C(F)(F)F)c2)C1 (stereo not shown) [33 (CF3^−5APT)]
5HT2C receptors [1]
  Ki: ~0.19 µM

## C[C@H]1CNCCc2ccc(Cl)cc21 [lorcaserin]
[3]
  selectivity for activation of 5HT2C receptors over 5HT2A receptors: 15 fold

## CN(C)C1CCc2c(cccc2-c2ccccc2)C1 (stereo not shown) [32 (5APT)]
5HT2A receptor [4]
  activation of 5HT2A receptor-mediated PLC/[3H]-IP formation (PDSP): did not activate
5HT2C receptors [5]
  EC50: ~0.08 µM
  Emax at 5HT2C (PDSP): ~75 % 5HT value
  functional character at 5HT2C (PDSP): moderate potency partial agonist
5HT2C receptors [1]
  Ki: 0.32 ± 0.011 µM

## CN(C)C1CCc2cc(-c3ccccc3)ccc2C1 (stereo not shown) [36 (6APT)]
5HT2C receptors [1]
  Ki: 1.8 µM

## [3H]C([3H])(N1CCC(C(=O)c2ccc(F)cc2)CC1)C([3H])([3H])n1c(=O)[nH]c2ccccc2c1=O [[^3H]-Ketanserin]
5HT2A receptor [6]
  Bmax of 5HT2A receptors labeled: 1.73±0.11 pmol/mg protein

## CN(C)C1CCc2cc(-c3cccc(Br)c3)ccc2C1 (stereo not shown) [40 (Br-6APT)]
5HT2C receptors [1]
  Ki: 0.54 ± 0.01 µM

## COc1cccc([C@H](O)C2CCN(CCc3ccc(F)cc3)CC2)c1OC [M100907]
[7]
  effect on rate of cocaine self-administration: does not alter responding rate

## Cc1cc2c(cc1Cl)N(C(=O)Nc1ccc(Oc3cccnc3C)nc1)CC2 [SB242084]
[7]
  effect on rate of cocaine self-administration: increases the rate of cocaine self-administration dose-dependently
